This note sets out measurements from PubChem BioAssay AID179 (DTP/NCI, 2004).

A word on the EC50: it is the concentration giving half of the maximal effect. What is called IC50 is the point on the concentration scale where inhibition reaches its midpoint. High values mean weaker potency in that assay, low ones greater potency in that assay.

The test system of this assay is CEM cells HIV-1 protection, formazan growth assay. Briefly: NCI AIDS Antiviral Assay. The conditions noted are these: for IC50: measured here: growth of uninfected CEM cells. The method in brief:
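Five concentrations of each compound were applied to infected and uninfected human CEM cells. Protection from HIV-1 was judged from growth measured with a soluble formazan assay.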

“And” between values parts separate entries of the source, which are not always exact repeats. Equal values may be shown once. The source made the active and inactive calls.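 Rule for the calls: active = compounds giving half or more protection of infected cells from virus-caused growth loss, again on retest; inactive = the rest.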 Where a SMILES comes first, the peptide text is derived from it. Bounds are passed on as bounds.

Consider `c1cc(SSc2ccncc2)ccn1`, for which the EC50 was more than 200 µM and the IC50 stood at 25.1 µM.
Take `Nc1nccc(Nc2ccc(S(N)(=O)=O)cc2)n1`: the EC50 was more than 200 µM and the IC50 was found to be 135 µM.
Taken in the same sequence, the figures for `C=C1C(=O)OC2C1CC1OC2C(C)CCC/C(C)=C\CCC1(C)O` (configuration not stated) were more than 525 µM and 17 µM.
Taken in the same sequence, the figures for `COc1ccccc1/C=C(\C#N)c1ccccc1` were more than 22.4 µM and 11 µM.
On to `CC(/C=C/c1ccc(N(C)C)cc1)=N\NC(=S)NCC(C)C`, for which the EC50 is more than 200 µM and the IC50 stood at 29.5 µM.
`O=C1C(=O)C(Br)(c2ccccc2)C(=O)C1c1ccccc1` (configuration not stated): the EC50 was more than 200 µM and the IC50 was more than 200 µM.
Turning to `COc1ccc(/C=C2\CN(C)Cc3c2[nH]c(=O)c(C#N)c3-c2ccc(OC)cc2)cc1`, the EC50 was more than 200 µM and the IC50 was found to be 97.7 µM.
On to `CC(C)Cc1ccc(C(C)C(=O)O)cc1` (configuration not stated), for which the EC50 was more than 1200 µM and the 50% inhibitory concentration (IC50) amounted to 389 µM.
As to `CCNC(=S)NCCc1c[nH]c2ccccc12`, the EC50 was more than 200 µM and the IC50 came out at 186 µM.
For the compound `CNC(=S)N/N=C(\C)c1cc(OC)ccc1O`, the EC50 is more than 200 µM and the IC50 turned out to be 14.5 µM.
With `CC(C)(C)c1ccccc1N1C(=O)c2ccc3c4c(ccc(c24)C1=O)N(c1ccccc1C(C)(C)C)C3=O`, the EC50 is more than 200 µM and the IC50 was more than 200 µM.
Regarding `CN1C(=O)/C(=C2\SC(=O)N(Cc3nc4ccccc4[nH]3)C2=O)c2cc(Br)ccc21`, the EC50 was more than 200 µM and the IC50 came to 12.9 µM.
As to `O=C1[C@@H]2C(c3c(Cl)cccc3Cl)=NO[C@@H]2C(=O)N1c1ccc(Cc2ccc(N3C(=O)[C@H]4C(c5c(Cl)cccc5Cl)=NO[C@H]4C3=O)cc2)cc1`, the EC50 is more than 35.5 µM and the IC50 is more than 35.5 µM.
For `O=C1CC2(C(=O)O1)C1C(=O)OC(=O)C1C1c3ccccc3C=NN12` (configuration not stated), the EC50 is more than 692 µM and the IC50 was more than 692 µM.
As to `COc1ccc(NC/C=C/C(=C/COC(C)=O)OC(C)=O)cc1`, the EC50 was more than 200 µM and the IC50 stood at 3.16 µM.
For the compound `CN(C)C[C@H]1C2C=CC(C2)[C@@H]1CO` (some centres not stated), the EC50 is more than 490 µM and the IC50 is more than 490 µM.
For `O=C(c1ccccc1)N1C(=S)N=C(Nc2ccccc2)C1=Nc1ccccc1`, the EC50 was more than 200 µM and the IC50 was more than 200 µM.
With `COc1cc(C(c2cccc3ccccc23)N2C(=O)CCC2C(=O)NCc2ccccc2)cc(OC)c1OC` (configuration not stated), the EC50 is more than 200 µM and the IC50 is more than 200 µM.
On to `CC(=O)O[C@H]1[C@H](OC(=O)CC(C)(O)CC(=O)O)C[C@]2(C)C3=C(CCC2C1(C)C)[C@]1(C)CC[C@H]([C@H]2CC[C@H](C(C)(C)O)OC2O)[C@@]1(C)[C@@H](O)C3` (some centres not stated), for which the EC50 is more than 100 µM and the IC50 was found to be 49 µM.
`COC(=O)C(Cl)=C1CC1`: the EC50 is more than 1700 µM and the IC50 is 93.3 µM.
In the case of `O=C(NC1CCCCC1)N1CCNC1=S`, the EC50 is more than 200 µM and the IC50 was more than 200 µM.
With `CC1(C)CCOC(=O)C(Cl)CC1Cl` (configuration not stated), the EC50 is more than 200 µM and the half-inhibitory concentration (IC50) is more than 200 µM.
As for `COCN1C(=O)[C@@H]2CCCN2C(=O)c2ccc(N)cc21`, the EC50 is more than 200 µM and the IC50 is more than 200 µM.
`Cn1c(=O)nc2n(-c3ccc(Cl)c(C(F)(F)F)c3)c3ccccc3nc-2c1=O`: the outcome was inactive.
Regarding `COc1cc2c(cc1OC)C[N+]1(C)CCc3cc(OC)c(OC)cc3C1C2` (configuration not stated), the EC50 was more than 501 µM and the half-inhibitory concentration (IC50) was more than 501 µM.
For `O=c1cn[nH]c2c(F)cccc12`, the EC50 was more than 646 µM and the IC50 amounted to 617 µM.
As to `CC1(C)OC(=O)C(CC(=O)O)O1` (configuration not stated), the outcome was inactive.
Regarding `CC1=CC2OC3CC4OC(=O)/C=C/C=C/C(=O)OCCC(C)C(O)C(=O)OCC2(CC1O)C4(C)C31CO1` (configuration not stated), the EC50 is more than 0.2 µM and the 50% inhibitory concentration (IC50) turned out to be 0.00347 µM.
As for `CC(=O)NNc1nc(C)c(C(=O)NNC(=O)C(=O)Nc2ccc([N+](=O)[O-])cc2[N+](=O)[O-])s1`, the EC50 is more than 204 µM and the IC50 was 38 µM.
On to `CCC(=N\NC(N)=S)/C(C)=N/O`, for which the EC50 is more than 200 µM and the IC50 is more than 200 µM.
For `Cc1ccc(C)n1C1CCOC1=O` (configuration not stated), the result was inactive.
For `C=C(C)COc1ccc(C2OCC(CC)C(CCC)O2)cc1` (configuration not stated), the EC50 is more than 200 µM and the IC50 was found to be 89.1 µM.
The like results for `CC(=NNC(=S)Nc1ccccc1)c1cccc(C(C)=NNC(=S)Nc2ccccc2)n1` were, in that order, more than 200 µM and 9.33 µM.
Turning to `Cc1ccc(/C=C/C(=O)Oc2ccc(/C=C3\CCC/C(=C\c4ccc(OC(=O)/C=C/c5ccc(C)cc5)cc4)C3=O)cc2)cc1`, the EC50 is more than 100 µM and the IC50 is more than 100 µM.
As to `CCCCCCCCCCCCCCCCCCOCC(CCP(=O)(CP(=O)(O)O)Oc1ccccc1)OCCCCCCCCCCCCCCCCCC` (configuration not stated), the outcome was inactive.
In the case of `CC(C)C1COC(C(C)(C)C2=N[C@@H](C(C)C)CO2)=N1` (some centres not stated), the EC50 is more than 251 µM and the IC50 stood at 135 µM.
For the compound `CCOC(=O)c1nnsc1NN=C(C)C`, the EC50 was more than 200 µM and the IC50 is more than 200 µM.
For `C=CC(C)(C)C1Oc2cc(O)ccc2C(=O)C1c1ccc(OC)c(OC)c1O` (configuration not stated), the EC50 is more than 200 µM and the IC50 came out at 3.09 µM.
`NC(=O)C12C(=O)NC(=O)C1(C(=O)O)C2C1CCCCC1` (configuration not stated): the outcome was inactive.
On to `CCOC(=O)c1ccc(CS(=O)(=O)c2ccc([N+](=O)[O-])cc2)cc1`, for which the EC50 is more than 53.7 µM and the 50% inhibitory concentration (IC50) is more than 53.7 µM.
With `O=C(CSc1nnc(-c2ccc(N=Cc3ccc(Cl)cc3)cc2)o1)Nc1ccc(Cl)cc1`, the EC50 is more than 269 µM and the IC50 worked out at 141 µM.
On to `C=CCN(CC=C)Cn1c(=S)sc2ccccc21`, for which the EC50 is more than 200 µM and the concentration for half-maximal inhibition (IC50) was determined as 141 µM.
Take `CC(=O)OCC1OC(n2c(-c3ccccc3)c(N=Nc3ccc(Cl)cc3)c(C)c(C#N)c2=S)C(OC(C)=O)C(OC(C)=O)C1OC(C)=O` (configuration not stated): the EC50 was more than 200 µM; the IC50 is 24.5 µM and 95.5 µM.
`Cn1cnc([N+](=O)[O-])c1Sc1ncccn1`: the EC50 was more than 1050 µM and the IC50 was 38 µM.
With `Nc1nc2c(ncn2CC2OCC(CO)O2)c(=O)[nH]1` (configuration not stated), the EC50 is more than 2950 µM; the IC50 was 1820 µM and 275 µM.
Take `CCOC(=O)c1nc2ccccc2nc1Nc1ccc(OC)c(OC)c1`: the EC50 was more than 200 µM and the IC50 was more than 200 µM.
Regarding `Cc1ccc2nc(CN3CCCCC3)cc(=O)n2c1`, the EC50 was more than 151 µM and the IC50 was more than 151 µM.
Turning to `O=C1CCC[C@H]2O[C@@H](COC(=O)c3ccccc3)C[C@H]2O1`, the EC50 is more than 200 µM and the IC50 is more than 200 µM.
With `CSc1cc(-c2ccccc2)s[s+]1` (tested in a mixture with another compound), the EC50 is more than 200 µM and the IC50 amounted to 35.5 µM.
As for `O=C(/C=C(/SS/C(=C/C(=O)c1ccccc1)c1ccccc1)c1ccccc1)c1ccccc1`, the EC50 is more than 200 µM and the concentration for half-maximal inhibition (IC50) turned out to be 2.51 µM.
With `Nc1nc(=S)[nH]c(C(=O)Nc2ccc(Cl)c(Cl)c2)c1-c1ccc(Cl)cc1`, the EC50 was more than 43.7 µM and the IC50 was more than 43.7 µM.
`COC(=O)C1(OC(=O)Sc2ccccc2)CCN(C)CC1`: the EC50 was more than 200 µM and the 50% inhibitory concentration (IC50) amounted to 26.3 µM.
For `CC1OC(O[C@H]2/C=C/C=C/C=C/C=C/C=C/C=C/C=C/[C@H](C)[C@@H](O)[C@@H](C)[C@H](C)OC(=O)C[C@H](O)C[C@H](O)CC[C@@H](O)[C@H](O)C[C@H](O)C[C@]3(O)C[C@H](O)[C@@H](C(=O)O)[C@H](C2)O3)C(O)C(N)C1O` (some centres not stated), the EC50 was more than 4.9 µM.
Regarding `COc1cc(NC=O)c2c(c1)SCCC(=O)N2`, the EC50 is more than 200 µM and the IC50 is more than 200 µM.
With `COC(=O)c1cc(C(=CCCc2ccccc2)c2cc(Br)c(OC)c(C(=O)OC)c2)cc(Br)c1OC`, the EC50 was more than 200 µM and the IC50 worked out at 11.2 µM.
Regarding `CC1=Nc2ccc(Cl)cc2N=C(C)C1`, the EC50 is more than 200 µM and the IC50 was 155 µM.
Turning to `N=c1ccn2c(n1)OC1C(O)C(CCl)OC12` (configuration not stated), the EC50 is more than 200 µM and the IC50 was 0.145 µM.
Regarding `O=S(=O)(O)c1cccc(N=Nc2ccc(N=Nc3ccc(Nc4ccccc4)c4c(S(=O)(=O)O)cccc34)c3ccccc23)c1`, the EC50 was 155 µM and the IC50 is more than 200 µM.
In the case of `O=C1C(Cl)C(c2cccc(O)c2)N1n1cnc2ccccc2c1=O` (configuration not stated), the EC50 was more than 75.9 µM and the IC50 is more than 75.9 µM.
As for `O=C1[C@@H]2C(c3ccncc3)=NO[C@@H]2C(=O)N1c1ccc(Cc2ccc(N3C(=O)[C@H]4C(c5ccncc5)=NO[C@H]4C3=O)cc2)cc1`, the EC50 was more than 12 µM and the IC50 was more than 12 µM.
As to `Cc1ccc(C)c(NC(=O)/C(=N\N)C(c2cnc3ccc([N+](=O)[O-])cc3n2)[N+](=O)[O-])c1` (configuration not stated), the EC50 is more than 589 µM and the IC50 is 219 µM.
The like results for `CCCC(=O)Nc1cc(C)c(NC(=O)CN(CC)CC)c(C)c1` were, in that order, more than 200 µM and more than 200 µM.
In the case of `COc1cc(C)cc2c1c(=O)c1ccccc1n2C`, the EC50 was more than 200 µM and the IC50 was determined as 38.9 µM.
Turning to `Cc1ccc2c(c1)-c1nc(N)c(C#N)c(-c3ccccc3)c1CCS2(=O)=O`, the EC50 was more than 200 µM and the IC50 was more than 200 µM.
On to `CN1C(=O)Cn2c(nn(Cc3ccccc3)c(=O)c2=O)-c2cc(Cl)ccc21`, for which the concentration giving a half-maximal response (EC50) is 42.7 µM and the IC50 is 67.6 µM.
`O=S1(=O)c2ccccc2N(c2ccccc2)c2nnnn21`: the EC50 is more than 79.4 µM and the IC50 came to 33.1 µM.
As for `NC(CO)C(=O)NC(CO)C(=O)NC(Cc1ccc(O)cc1)C(=O)NC(CO)C(=O)NC(CO)C(=O)O` (configuration not stated) (H-SSYSS-OH; configuration not given here), the EC50 is more than 93.3 µM and the IC50 is more than 93.3 µM.
For `Cn1c(N)c(N)c(=O)[nH]c1=O`, the EC50 was more than 200 µM and the IC50 stood at 162 µM.
Consider `CCN(CC)CCOc1ccc(/C(C#N)=C/c2ccc3ccccc3c2)cc1`, for which the EC50 is more than 100 µM and the IC50 turned out to be 0.933 µM.
